Some test systems named below: UO-31 renal; TK-10 renal; RPMI-8226 leukemia; CAKI-1 renal; SN12C renal; OVCAR-8 ovarian; MALME-3M melanoma; COLO 205 colon; NCI-H460 lung; EKVX NSCLC.
Assay in all cases: NCI tumour cell line growth inhibition, 48 h

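Five concentrations, 48 hours, 96-well plates. At the GI50, growth is halved. TGI: concentration producing complete growth inhibition.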

As to `Cc1ccc(OCC(=O)N2N=C(c3ccccc3)CC2(O)c2ccccc2)cc1` (configuration not stated), the TGI in the experiment with UO-31 renal is over 100 µM; with TK-10 renal, over 100 µM; in the experiment on RPMI-8226 leukemia, over 100 µM; in the experiment on CAKI-1 renal, over 100 µM; in the experiment with SN12C renal it was 40.3 µM; in the experiment with OVCAR-8 ovarian it was over 100 µM. Further, the results for the TGI in the experiment with MALME-3M melanoma, in the experiment with COLO 205 colon and in the experiment on NCI-H460 lung were over 100 µM, over 100 µM and 28.2 µM, respectively.

As for `O=C(Oc1ccc(Cl)cc1Cl)c1ccccc1Nc1ccnc(C(F)(F)F)c1`, the GI50 is 18.1 µM in the experiment on UO-31 renal; 4.05 µM in the experiment with TK-10 renal; 2.39 µM in the experiment on RPMI-8226 leukemia; 2.1 µM in the experiment on CAKI-1 renal; 18.5 µM in the experiment on EKVX NSCLC; 3.01 µM in the experiment on SN12C renal. Besides, the GI50 in the experiment with OVCAR-8 ovarian was 4.79 µM; in the experiment with NCI-H460 lung, 4.26 µM. Moreover, the TGI was over 100 µM with UO-31 renal; 23.9 µM with TK-10 renal; 6.29 µM with RPMI-8226 leukemia; 4.14 µM in the experiment on CAKI-1 renal; 40.9 µM in the experiment on EKVX NSCLC; 7.63 µM in the experiment on SN12C renal. Moreover, the figures for the TGI in the experiment on OVCAR-8 ovarian and in the experiment on NCI-H460 lung were 30.8 µM and 33.8 µM, respectively.

Consider `CC(=O)Nc1ccc2c(c1)c(C1=C(c3cn(C)c4ccccc34)C(=O)NC1=O)cn2C`, for which the GI50 in the experiment with UO-31 renal was 1.16 µM; in the experiment with TK-10 renal it was 4.21 µM; in the experiment on RPMI-8226 leukemia, 1.22 µM; in the experiment with CAKI-1 renal it was 1.07 µM; in the experiment with SN12C renal, 1.66 µM; in the experiment on OVCAR-8 ovarian, 2.68 µM. In addition, the GI50 with MALME-3M melanoma was over 9.93 µM; in the experiment on COLO 205 colon, 1.3 µM; in the experiment with NCI-H460 lung it was 0.986 µM. For the same compound, the TGI in the experiment on UO-31 renal is over 25 µM; in the experiment with TK-10 renal, over 25 µM; in the experiment on RPMI-8226 leukemia, over 22.1 µM; in the experiment with CAKI-1 renal, 24.3 µM; in the experiment on SN12C renal, over 25 µM; in the experiment on OVCAR-8 ovarian, over 25 µM. Further, the TGI in the experiment with MALME-3M melanoma, in the experiment on COLO 205 colon and in the experiment on NCI-H460 lung was over 25 µM throughout.

Take `COc1cc(-c2nn(-c3ccc(NC(=O)c4ccc(Cl)c(Cl)c4)cc3)cc2-c2ccncc2)ccc1Cl`: the GI50 was 2.73 µM with UO-31 renal; over 100 µM in the experiment with TK-10 renal; 3.03 µM with RPMI-8226 leukemia; 3.67 µM with CAKI-1 renal; 6.82 µM in the experiment on EKVX NSCLC; 5.11 µM in the experiment with SN12C renal. Also, the GI50 in the experiment on OVCAR-8 ovarian was 5.28 µM; in the experiment on COLO 205 colon it was 3.62 µM; with NCI-H460 lung it was 4.17 µM. Further, the TGI was 9.85 µM in the experiment on UO-31 renal; over 100 µM with TK-10 renal; 14.1 µM in the experiment on RPMI-8226 leukemia; over 100 µM in the experiment with CAKI-1 renal; over 100 µM in the experiment on EKVX NSCLC; over 100 µM with SN12C renal. In addition, the TGI in the experiment with OVCAR-8 ovarian, with COLO 205 colon and in the experiment with NCI-H460 lung was over 100 µM each time.

As to `CNC(P(=O)([O-])[O-])P(=O)([O-])[O-].N.N.[Pt+2]`, the GI50 in the experiment on UO-31 renal, with TK-10 renal, in the experiment on CAKI-1 renal, in the experiment with EKVX NSCLC, in the experiment with SN12C renal and in the experiment with OVCAR-8 ovarian was over 100 µM each time. Moreover, the figures for the GI50 in the experiment on MALME-3M melanoma, with COLO 205 colon and in the experiment with NCI-H460 lung were over 100 µM, over 100 µM and 51.2 µM, respectively. Moreover, the TGI in the experiment on UO-31 renal, with TK-10 renal, in the experiment on CAKI-1 renal, in the experiment on EKVX NSCLC, in the experiment with SN12C renal and with OVCAR-8 ovarian was over 100 µM each time. In addition, the TGI in the experiment with MALME-3M melanoma, in the experiment with COLO 205 colon and with NCI-H460 lung was over 100 µM in each case.

As to `CCOC(=O)c1c2c(n3ccc(NC(=O)CCN4CCCC4)cc13)C(=O)c1ncccc1C2=O`, the GI50 is 0.724 µM with UO-31 renal; 1.26 µM in the experiment on TK-10 renal; 1.56 µM in the experiment on RPMI-8226 leukemia; 0.181 µM in the experiment with CAKI-1 renal; 1.46 µM with EKVX NSCLC; 1.43 µM in the experiment on SN12C renal. Moreover, the results for the GI50 in the experiment on OVCAR-8 ovarian and in the experiment on MALME-3M melanoma were 1.38 µM and 15.8 µM, respectively. Moreover, the TGI in the experiment on UO-31 renal was 2.81 µM; in the experiment on TK-10 renal, 2.61 µM; with RPMI-8226 leukemia, 4.65 µM; with CAKI-1 renal, 1.55 µM; in the experiment with EKVX NSCLC, 3.58 µM; in the experiment with SN12C renal, 3.47 µM. Besides, the TGI in the experiment with OVCAR-8 ovarian is 3.49 µM; with MALME-3M melanoma, 41.4 µM.

Turning to `Cc1ccc(-[n+]2c3cc(N)c(C)cc3nc3cc(C)c(Nc4ccccc4)cc32)cc1`, the GI50 with UO-31 renal is 0.27 µM; with TK-10 renal, 0.148 µM; with CAKI-1 renal it was 0.173 µM; in the experiment on EKVX NSCLC it was 0.0651 µM; with OVCAR-8 ovarian, 0.103 µM; with COLO 205 colon it was 0.0461 µM. Also, the TGI with UO-31 renal is 1.03 µM; in the experiment on TK-10 renal, 1.04 µM; in the experiment on CAKI-1 renal, 0.461 µM; in the experiment with EKVX NSCLC, 1.03 µM; in the experiment with OVCAR-8 ovarian, over 100 µM; with COLO 205 colon, 0.326 µM.

On to `O=C(c1ccccc1)C(C(=O)c1ccccc1)C1(O)C(=O)c2ccccc2C1=O`, for which the TGI is over 100 µM with UO-31 renal; 55.2 µM in the experiment with TK-10 renal; over 100 µM with RPMI-8226 leukemia; over 100 µM with EKVX NSCLC; over 100 µM with SN12C renal; over 100 µM in the experiment on OVCAR-8 ovarian. Further, the TGI was 96.6 µM with MALME-3M melanoma and over 100 µM in the experiment with COLO 205 colon.

For the compound `COc1ccc(-c2nc3sc(C)cn3c2/C=C/C(=O)c2cc(OC)c(OC)c(OC)c2)cc1`, the GI50 with UO-31 renal is 2.27 µM; with TK-10 renal, 5.55 µM; in the experiment with CAKI-1 renal, 5.15 µM; in the experiment with EKVX NSCLC it was 4.04 µM; in the experiment on SN12C renal, 4.07 µM; with OVCAR-8 ovarian, 3.23 µM. Further, the GI50 in the experiment with COLO 205 colon was 4.7 µM. The TGI with UO-31 renal is 7.61 µM; in the experiment on TK-10 renal it was over 100 µM; with CAKI-1 renal, over 100 µM; in the experiment on EKVX NSCLC, over 100 µM; in the experiment on SN12C renal it was over 100 µM; with OVCAR-8 ovarian, 8.57 µM. This compound also registered a TGI with COLO 205 colon of over 100 µM.

On to `CC[C@H](C)N(CCN)C(=O)c1cc2ccccc2c(-c2ccccc2Cl)n1`, for which the TGI with UO-31 renal came out at 25.3 µM; in the experiment on TK-10 renal it was 25.5 µM; with RPMI-8226 leukemia, 32.4 µM; with EKVX NSCLC it was 25.4 µM; in the experiment on SN12C renal, 32.8 µM; in the experiment on OVCAR-8 ovarian it was 27.6 µM. The TGI in the experiment on COLO 205 colon was 17.9 µM; in the experiment on NCI-H460 lung, 27.1 µM.

Values taken from PubChem BioAssay (NCI).
